# Results: ChEMBL document CHEMBL1938390, “Pyrazolopyridine inhibitors of B-Raf(V600E). Part 3: an increase in aqueous solubility via the disruption of crystal packing” (Bioorg Med Chem Lett, 2012)
# Experiments:
# [1] = target: T1, Serine/threonine-protein kinase B-raf (Homo sapiens, UniProt P15056, V600E); assay: Inhibition of full-length B-Raf V600E mutant
# [2] = Solubility of the compound at pH 7.4; type: physicochemical; details: buffer
# [3] = target: T1, Serine/threonine-protein kinase B-raf; assay: Inhibition of B-Raf V600E mutant-mediated Erk phosphorylation in human MALME-3M cells; type: cell-based
# [4] = Solubility of the compound at pH 6.5; type: physicochemical; details: buffer
# T1 sequence (P15056 2-766 V600E limits assumed): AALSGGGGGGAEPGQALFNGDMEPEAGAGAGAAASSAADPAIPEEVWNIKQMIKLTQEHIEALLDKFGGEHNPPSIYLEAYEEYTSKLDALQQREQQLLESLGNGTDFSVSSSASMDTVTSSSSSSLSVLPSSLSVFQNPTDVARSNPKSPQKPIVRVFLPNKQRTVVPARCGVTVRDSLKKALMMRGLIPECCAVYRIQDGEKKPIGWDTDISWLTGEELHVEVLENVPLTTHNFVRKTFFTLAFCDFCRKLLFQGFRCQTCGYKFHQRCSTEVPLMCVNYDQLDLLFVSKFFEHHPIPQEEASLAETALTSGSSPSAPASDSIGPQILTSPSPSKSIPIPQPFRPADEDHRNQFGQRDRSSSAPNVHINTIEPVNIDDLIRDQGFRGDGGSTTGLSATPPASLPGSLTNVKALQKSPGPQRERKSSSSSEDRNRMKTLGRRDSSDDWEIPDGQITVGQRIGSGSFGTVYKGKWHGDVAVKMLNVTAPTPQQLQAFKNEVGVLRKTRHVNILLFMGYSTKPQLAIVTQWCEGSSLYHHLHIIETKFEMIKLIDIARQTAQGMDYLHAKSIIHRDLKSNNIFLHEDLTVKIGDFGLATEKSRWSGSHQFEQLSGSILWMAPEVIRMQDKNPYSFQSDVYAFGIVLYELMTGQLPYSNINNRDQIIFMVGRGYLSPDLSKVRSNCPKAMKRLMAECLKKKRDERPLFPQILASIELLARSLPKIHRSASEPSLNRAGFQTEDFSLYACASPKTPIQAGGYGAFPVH
Structure (SMILES),IC50 [1] [nM],solubility [2] [µg/mL],IC50 [3] [nM],solubility [4] [µg/mL]
CCCS(=O)(=O)Nc1ccc(F)c(C(=O)Nc2cnc3[nH]nc(OC)c3c2)c1F,,9,,4
CCCS(=O)(=O)Nc1ccc(Cl)c(C(=O)Nc2cnc3[nH]nc(OC)c3c2)c1F,,2,,< 1
CCCS(=O)(=O)Nc1ccc(F)c(C(=O)Nc2cnc3[nH]nc(C4CC4)c3c2)c1F,2.7,4,23,1
O=C(Nc1cnc2[nH]nc(C3CC3)c2c1)c1c(F)ccc(NS(=O)(=O)CCCF)c1Cl,0.6,265,51,130
CCCS(=O)(=O)Nc1ccc(F)c(C(=O)Nc2cnc3[nH]nc(C4CC4)c3c2)c1Cl,3.8,127,33,54

# Other lines, results leading:
IC50 [1] [nM],solubility [2] [µg/mL],IC50 [3] [nM],solubility [4] [µg/mL],Structure (SMILES)
2,< 1,18,1,CC(C)CS(=O)(=O)Nc1ccc(F)c(C(=O)Nc2cnc3[nH]nc(C4CC4)c3c2)c1Cl
14,,89,6,CCCS(=O)(=O)Nc1ccc(F)c(C(=O)Nc2cnc3[nH]nc(C(C)C)c3c2)c1F
2.2,2,19,< 1,CCCS(=O)(=O)Nc1ccc(F)c(C(=O)Nc2cnc3[nH]nc(OC)c3c2)c1Cl
